Assay results: ChEMBL document CHEMBL5338706, “Discovery of a potent and selective proteolysis targeting chimera (PROTAC) degrader of NSD3 histone methyltransferase” (Eur J Med Chem, 2022)
The source made the active and inactive calls. The rule behind the calls is not given here.

Assays:
[1] = target: T1, Histone-lysine N-methyltransferase NSD3 (Homo sapiens) (UniProt Q9BZ95); assay: Induction of NSD3 degradation in human NCI-H1703 cells at 3 uM incubated for 48 hrs in presence of MG132 by Western blot analysis; format: cell-based
T1 sequence (whole entry): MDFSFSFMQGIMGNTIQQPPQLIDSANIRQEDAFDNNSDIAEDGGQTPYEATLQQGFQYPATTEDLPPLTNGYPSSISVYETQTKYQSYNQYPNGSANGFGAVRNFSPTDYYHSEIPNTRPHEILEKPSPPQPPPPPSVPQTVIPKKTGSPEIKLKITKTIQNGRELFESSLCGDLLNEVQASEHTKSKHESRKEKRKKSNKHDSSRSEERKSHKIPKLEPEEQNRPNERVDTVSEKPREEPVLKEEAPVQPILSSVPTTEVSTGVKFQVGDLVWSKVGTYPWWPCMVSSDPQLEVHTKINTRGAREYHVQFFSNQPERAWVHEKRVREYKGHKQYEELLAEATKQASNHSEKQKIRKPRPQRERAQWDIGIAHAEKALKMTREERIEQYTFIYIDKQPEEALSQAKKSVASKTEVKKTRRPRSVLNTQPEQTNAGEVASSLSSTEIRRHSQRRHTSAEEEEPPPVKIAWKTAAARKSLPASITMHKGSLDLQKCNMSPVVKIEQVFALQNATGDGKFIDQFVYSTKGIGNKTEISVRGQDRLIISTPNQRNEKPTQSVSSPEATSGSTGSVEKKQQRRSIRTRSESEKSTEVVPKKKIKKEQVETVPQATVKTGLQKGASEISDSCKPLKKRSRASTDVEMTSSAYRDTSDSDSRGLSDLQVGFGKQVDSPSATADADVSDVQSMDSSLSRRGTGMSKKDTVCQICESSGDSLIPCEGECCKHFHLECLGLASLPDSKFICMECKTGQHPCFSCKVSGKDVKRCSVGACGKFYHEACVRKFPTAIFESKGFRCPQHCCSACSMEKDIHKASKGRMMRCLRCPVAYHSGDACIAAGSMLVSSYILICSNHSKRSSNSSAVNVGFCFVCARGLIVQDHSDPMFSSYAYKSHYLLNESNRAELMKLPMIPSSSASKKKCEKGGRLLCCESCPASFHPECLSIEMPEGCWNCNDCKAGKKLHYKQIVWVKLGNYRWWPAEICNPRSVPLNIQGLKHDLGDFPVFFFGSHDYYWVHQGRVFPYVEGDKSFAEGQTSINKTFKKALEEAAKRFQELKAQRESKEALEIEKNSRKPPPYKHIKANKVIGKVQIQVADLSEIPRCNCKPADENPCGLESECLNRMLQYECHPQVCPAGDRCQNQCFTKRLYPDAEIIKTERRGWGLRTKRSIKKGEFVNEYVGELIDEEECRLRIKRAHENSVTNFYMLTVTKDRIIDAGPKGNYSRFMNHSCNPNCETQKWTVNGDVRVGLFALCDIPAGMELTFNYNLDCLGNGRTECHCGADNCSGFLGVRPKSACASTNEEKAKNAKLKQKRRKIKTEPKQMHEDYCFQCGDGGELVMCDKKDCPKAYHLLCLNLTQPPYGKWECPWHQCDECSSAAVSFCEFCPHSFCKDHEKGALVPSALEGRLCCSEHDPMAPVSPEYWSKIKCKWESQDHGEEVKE

[2] = target: T2, Histone-lysine N-methyltransferase NSD2 (Homo sapiens) (UniProt O96028); assay: Induction of NSD2 degradation in human NCI-H1703 cells at 3 to […] incubated for 72 hrs by Western blot analysis; format: cell-based; settings: dose 3-7.5 µM
T2 sequence (whole entry): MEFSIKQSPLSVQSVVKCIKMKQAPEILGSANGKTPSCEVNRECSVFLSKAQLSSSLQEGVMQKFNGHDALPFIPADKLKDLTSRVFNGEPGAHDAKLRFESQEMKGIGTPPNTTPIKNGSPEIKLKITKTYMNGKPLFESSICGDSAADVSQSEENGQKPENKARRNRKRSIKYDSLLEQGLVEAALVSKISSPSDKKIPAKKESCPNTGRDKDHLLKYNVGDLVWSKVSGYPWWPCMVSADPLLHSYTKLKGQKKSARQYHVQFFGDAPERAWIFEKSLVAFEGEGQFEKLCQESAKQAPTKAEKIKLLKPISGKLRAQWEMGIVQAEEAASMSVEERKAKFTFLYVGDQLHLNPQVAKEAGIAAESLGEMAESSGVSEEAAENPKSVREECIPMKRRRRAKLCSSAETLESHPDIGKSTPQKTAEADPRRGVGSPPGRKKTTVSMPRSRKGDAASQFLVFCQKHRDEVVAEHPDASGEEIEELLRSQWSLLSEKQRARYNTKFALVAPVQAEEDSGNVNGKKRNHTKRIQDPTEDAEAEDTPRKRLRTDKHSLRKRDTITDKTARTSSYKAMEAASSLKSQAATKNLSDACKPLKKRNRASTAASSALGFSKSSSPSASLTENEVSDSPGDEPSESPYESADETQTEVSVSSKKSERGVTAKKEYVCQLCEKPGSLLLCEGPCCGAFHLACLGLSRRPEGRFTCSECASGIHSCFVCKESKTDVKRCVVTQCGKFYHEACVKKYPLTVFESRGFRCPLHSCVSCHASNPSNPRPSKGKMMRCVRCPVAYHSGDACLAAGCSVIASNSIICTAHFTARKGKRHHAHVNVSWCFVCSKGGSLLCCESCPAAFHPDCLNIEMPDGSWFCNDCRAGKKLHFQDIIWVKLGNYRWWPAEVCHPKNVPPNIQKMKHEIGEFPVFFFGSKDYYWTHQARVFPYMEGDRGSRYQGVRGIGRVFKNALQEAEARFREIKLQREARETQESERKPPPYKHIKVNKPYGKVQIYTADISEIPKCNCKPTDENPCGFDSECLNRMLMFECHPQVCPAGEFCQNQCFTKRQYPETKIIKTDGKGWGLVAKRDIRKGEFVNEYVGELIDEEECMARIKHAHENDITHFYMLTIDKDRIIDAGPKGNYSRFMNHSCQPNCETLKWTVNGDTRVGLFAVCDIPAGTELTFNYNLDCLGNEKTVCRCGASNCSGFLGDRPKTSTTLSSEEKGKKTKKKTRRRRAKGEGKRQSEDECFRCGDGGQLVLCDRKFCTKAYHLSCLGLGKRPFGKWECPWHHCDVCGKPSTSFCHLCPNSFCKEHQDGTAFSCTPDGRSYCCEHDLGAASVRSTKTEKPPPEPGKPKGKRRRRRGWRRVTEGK

NCI-H1703 = assay: Induction of apoptosis in human NCI-H1703 cells assessed as viable cells at […] measured after 72 hrs by PI/Annexin-V staining based flow cytometry analysis (reference value: 92.7% ); format: functional; settings: dose 7.5 µM, read-out: Activity
[3] = target: T1, Histone-lysine N-methyltransferase NSD3 (Homo sapiens); assay: Induction of NSD3 degradation in human A549 cells assessed as reduction of NSD3 protein at 7.5 measured after 48 hrs by Western blot analysis; format: cell-based
[4] = Downregulation of CDC25A level in human NCI-H520 cells at 3 uM by measuring fold change by Western blot analysis relative to control; format: functional

For Cc1cc(CNCCCCCCCCCCC(=O)N[C@H](C(=O)N2C[C@H](O)C[C@H]2C(=O)N[C@@H](C)c2ccc(-c3scnc3C)cc2)C(C)(C)C)cc(C)c1-c1ncn(C)c1-c1ccnc2cc(F)ccc12, the Activity [1] was “inactive”, the Activity [2] was “inactive” and the viability at […] (NCI-H1703) was 66.7%. The Activity [3] was “Active” and the “fold change (FC)” value [4] was 0.9.
